The subject of the experiment is Monocotyledonous and dicotyledonous weed seeds and main crop seeds. Briefly: Post-emergence test experiment (Table 3, 1000 g a.i./ha). The format is in vivo. The settings on record: 3 weeks in greenhouse, fresh weight inhibition. The method, then: The above described growth inhibition rate is fresh weight inhibition rate.
Post-emergence test experiment: Monocotyledonous and dicotyledonous weed seeds and main crop seeds (i. e. wheat, corn, rice, soybean, cotton, oilseed, millet and sorghum.) were put into a plastic pot loaded with soil. Then covered with 0.5-2 cm soil, the seeds were allowed to grow in good greenhouse environment. The test plants were treated at 2-3 leaf stage 2 weeks after sowing. The test compounds of the invention were dissolved with acetone respectively, then added with tween-80, and using 1.5 liters per hectare of an emulsible concentrate of methyl oleate as a synergist, and diluted by certain amount of water to certain concentration. The solution was sprayed to the plants with a sprayer. Then the plants were cultured for 3 weeks in the greenhouse, and the experiment result of weed controlling effect was listed in tables 3-4.

This note sets out measurements from patent US12643859B2, “Pyridyl oxycarboxylic acid oxime derivative and preparation method therefor, weeding composition and application thereof” (Qingdao Kingagroot Chemical Compound Co., Ltd., priority 2018, dated 2026).

Turning to `CSC(=NOC(=O)C(C)Oc1nc(F)c(Cl)c(N)c1Cl)c1ccc(SC)cc1` (centres unmarked) [Compound 89], the “Activity level (growth inhibition rate) Digitaria sanguinalis” value is listed as 5 (Level 5: the growth inhibition rate is greater than 85%), the “Activity level (growth inhibition rate) Echinochloa crusgalli” value is 5 (Level 5: the growth inhibition rate is greater than 85%), the “Activity level (growth inhibition rate) Galium spurium” value is listed as 5 (Level 5: the growth inhibition rate is greater than 85%) and the “Activity level (growth inhibition rate) Leptochloa chinensis” value was 5 (Level 5: the growth inhibition rate is greater than 85%). For the same molecule, the “Activity level (growth inhibition rate) Monochoria Vaginalis” value is 5 (Level 5: the growth inhibition rate is greater than 85%), the “Activity level (growth inhibition rate) Murdannia triquetra” value is 5 (Level 5: the growth inhibition rate is greater than 85%) and the “Activity level (growth inhibition rate) Setaria viridis” value is listed as 5 (Level 5: the growth inhibition rate is greater than 85%).
As to `CC(=O)C(=NOC(=O)C(C)Oc1nc(F)c(Cl)c(N)c1Cl)c1ccc(NOc2ccccc2)cc1` (centres unmarked) [Compound 91], the “Activity level (growth inhibition rate) Digitaria sanguinalis” value is reported as 5 (Level 5: the growth inhibition rate is greater than 85%), the “Activity level (growth inhibition rate) Echinochloa crusgalli” value is reported as 5 (Level 5: the growth inhibition rate is greater than 85%), the “Activity level (growth inhibition rate) Galium spurium” value is on record as 5 (Level 5: the growth inhibition rate is greater than 85%) and the “Activity level (growth inhibition rate) Leptochloa chinensis” value was 5 (Level 5: the growth inhibition rate is greater than 85%). For the same molecule, the “Activity level (growth inhibition rate) Monochoria Vaginalis” value is given as 5 (Level 5: the growth inhibition rate is greater than 85%), the “Activity level (growth inhibition rate) Murdannia triquetra” value is 5 (Level 5: the growth inhibition rate is greater than 85%) and the “Activity level (growth inhibition rate) Setaria viridis” value is 5 (Level 5: the growth inhibition rate is greater than 85%).
For `CC(Oc1nc(F)c(Cl)c(N)c1Cl)C(=O)ON=C(Cc1ccccc1)c1ccccc1N` (centres unmarked) [Compound 93], the “Activity level (growth inhibition rate) Digitaria sanguinalis” value is listed as 5 (Level 5: the growth inhibition rate is greater than 85%), the “Activity level (growth inhibition rate) Echinochloa crusgalli” value is listed as 5 (Level 5: the growth inhibition rate is greater than 85%), the “Activity level (growth inhibition rate) Galium spurium” value was 5 (Level 5: the growth inhibition rate is greater than 85%) and the “Activity level (growth inhibition rate) Leptochloa chinensis” value is on record as 5 (Level 5: the growth inhibition rate is greater than 85%). Also, the “Activity level (growth inhibition rate) Monochoria Vaginalis” value is reported as 5 (Level 5: the growth inhibition rate is greater than 85%), the “Activity level (growth inhibition rate) Murdannia triquetra” value is on record as 5 (Level 5: the growth inhibition rate is greater than 85%) and the “Activity level (growth inhibition rate) Setaria viridis” value is 5 (Level 5: the growth inhibition rate is greater than 85%).
Consider `CC(Oc1nc(F)c(Cl)c(N)c1Cl)C(=O)ON=C(C(=O)N(C)C)c1ccccc1` (centres unmarked) [Compound 99], for which the “Activity level (growth inhibition rate) Digitaria sanguinalis” value was 5 (Level 5: the growth inhibition rate is greater than 85%), the “Activity level (growth inhibition rate) Echinochloa crusgalli” value was 5 (Level 5: the growth inhibition rate is greater than 85%), the “Activity level (growth inhibition rate) Galium spurium” value was 5 (Level 5: the growth inhibition rate is greater than 85%) and the “Activity level (growth inhibition rate) Leptochloa chinensis” value was 5 (Level 5: the growth inhibition rate is greater than 85%). Moreover, the “Activity level (growth inhibition rate) Monochoria Vaginalis” value is 5 (Level 5: the growth inhibition rate is greater than 85%), the “Activity level (growth inhibition rate) Murdannia triquetra” value was 5 (Level 5: the growth inhibition rate is greater than 85%) and the “Activity level (growth inhibition rate) Setaria viridis” value was 5 (Level 5: the growth inhibition rate is greater than 85%).
In the case of `CC(Oc1nc(F)c(Cl)c(N)c1Cl)C(=O)ON=C(C(=O)NCc1ccccc1)c1ccccc1` (centres unmarked) [Compound 101], the “Activity level (growth inhibition rate) Digitaria sanguinalis” value is 5 (Level 5: the growth inhibition rate is greater than 85%), the “Activity level (growth inhibition rate) Echinochloa crusgalli” value is 5 (Level 5: the growth inhibition rate is greater than 85%), the “Activity level (growth inhibition rate) Galium spurium” value is on record as 5 (Level 5: the growth inhibition rate is greater than 85%) and the “Activity level (growth inhibition rate) Leptochloa chinensis” value is reported as 5 (Level 5: the growth inhibition rate is greater than 85%). Further, the “Activity level (growth inhibition rate) Monochoria Vaginalis” value is on record as 5 (Level 5: the growth inhibition rate is greater than 85%), the “Activity level (growth inhibition rate) Murdannia triquetra” value was 5 (Level 5: the growth inhibition rate is greater than 85%) and the “Activity level (growth inhibition rate) Setaria viridis” value is 5 (Level 5: the growth inhibition rate is greater than 85%).
As to `CSC(=O)C(=NOC(=O)C(C)Oc1nc(F)c(Cl)c(N)c1Cl)C(=O)NCc1ccc(Cl)cc1` (centres unmarked) [Compound 102], the “Activity level (growth inhibition rate) Digitaria sanguinalis” value was 5 (Level 5: the growth inhibition rate is greater than 85%), the “Activity level (growth inhibition rate) Echinochloa crusgalli” value was 5 (Level 5: the growth inhibition rate is greater than 85%), the “Activity level (growth inhibition rate) Galium spurium” value is listed as 5 (Level 5: the growth inhibition rate is greater than 85%) and the “Activity level (growth inhibition rate) Leptochloa chinensis” value is 5 (Level 5: the growth inhibition rate is greater than 85%). Also, the “Activity level (growth inhibition rate) Monochoria Vaginalis” value was 5 (Level 5: the growth inhibition rate is greater than 85%), the “Activity level (growth inhibition rate) Murdannia triquetra” value was 5 (Level 5: the growth inhibition rate is greater than 85%) and the “Activity level (growth inhibition rate) Setaria viridis” value is recorded as 5 (Level 5: the growth inhibition rate is greater than 85%).
In the case of `COc1ccc(CNC(=O)C(C)=NOC(=O)C(C)Oc2nc(F)c(Cl)c(N)c2Cl)cc1` (centres unmarked) [Compound 103], the “Activity level (growth inhibition rate) Digitaria sanguinalis” value is 5 (Level 5: the growth inhibition rate is greater than 85%), the “Activity level (growth inhibition rate) Echinochloa crusgalli” value is recorded as 5 (Level 5: the growth inhibition rate is greater than 85%), the “Activity level (growth inhibition rate) Galium spurium” value is reported as 5 (Level 5: the growth inhibition rate is greater than 85%) and the “Activity level (growth inhibition rate) Leptochloa chinensis” value is 5 (Level 5: the growth inhibition rate is greater than 85%). Moreover, the “Activity level (growth inhibition rate) Monochoria Vaginalis” value is 5 (Level 5: the growth inhibition rate is greater than 85%), the “Activity level (growth inhibition rate) Murdannia triquetra” value was 5 (Level 5: the growth inhibition rate is greater than 85%) and the “Activity level (growth inhibition rate) Setaria viridis” value was 5 (Level 5: the growth inhibition rate is greater than 85%).
`CC(Oc1nc(F)c(Cl)c(N)c1Cl)C(=O)ON=C(C(=O)NCCc1ccccc1)c1ccccc1` (centres unmarked) [Compound 105]: the “Activity level (growth inhibition rate) Digitaria sanguinalis” value is given as 5 (Level 5: the growth inhibition rate is greater than 85%), the “Activity level (growth inhibition rate) Echinochloa crusgalli” value is given as 5 (Level 5: the growth inhibition rate is greater than 85%), the “Activity level (growth inhibition rate) Galium spurium” value is given as 5 (Level 5: the growth inhibition rate is greater than 85%) and the “Activity level (growth inhibition rate) Leptochloa chinensis” value is recorded as 5 (Level 5: the growth inhibition rate is greater than 85%). For the same molecule, the “Activity level (growth inhibition rate) Monochoria Vaginalis” value is 5 (Level 5: the growth inhibition rate is greater than 85%), the “Activity level (growth inhibition rate) Murdannia triquetra” value is given as 5 (Level 5: the growth inhibition rate is greater than 85%) and the “Activity level (growth inhibition rate) Setaria viridis” value is recorded as 5 (Level 5: the growth inhibition rate is greater than 85%).
